In patent US12371459B2, “Antimicrobial peptide derived from Pseudin-2 peptide and uses thereof” (INDUSTRY-ACADEMIC COOPERATION FOUNDATION, CHOSUN UNIVERSITY, priority 2019, dated 2025):
“And” between values parts separate entries of the source, which are not always exact repeats. Equal entries are not always repeated. Ends that are not written are not given here.

Legend:
[1] = system: Bacillus subtilis KCTC 1998; details: KCTC 1998, 18 h
From the text: (§1) To compare the antimicrobial activity among the peptides produced by the method of Example 1, the inventors of the present invention measured the minimal growth inhibitory concentration (MIC), which is minimum concentration of the peptide not allowing any […] of bacterial cells.
(§2) Specifically, the bacterial strains described in the following Table 2 were purchased and cultured to a mid-log phase in a medium that is appropriate for each strain. […] After the addition to a plate, the cells were cultured for 18 hours at 37° C. […] As a control, Pseudin-2 as a mother peptide was used.

[2] = system: Candida albicans KCTC 7270; details: KCTC 7270, 18 h
From the text: as §1, §2

[3] = system: Escherichia coli ATCC 25922; details: ATCC 25922, 18 h
From the text: as §1, §2

[4] = system: Escherichia coli CCARM 1229 (tolerance to antibiotics)
From the text: as §1, §2

[5] = system: Escherichia coli CCARM 1238 (tolerance to antibiotics)
From the text: as §1, §2

[6] = system: Listeria monocytogenes KCTC 3710; details: KCTC 3710, 18 h
From the text: as §1, §2

[7] = system: Pseudomonas aeruginosa ATCC 27853; details: ATCC 27853, 18 h
From the text: as §1, §2

[8] = system: Pseudomonas aeruginosa isolated strain 4007 (tolerance to antibiotics)
From the text: as §1, §2

[9] = system: Pseudomonas aeruginosa isolated strain 4891 (tolerance to antibiotics)
From the text: as §1, §2

[10] = system: Salmonella typhimurium KCTC 1926; details: KCTC 1926, 18 h
From the text: as §1, §2

[11] = system: Staphylococcus aureus ATCC 25923; details: ATCC 25923, 18 h
From the text: as §1, §2

[12] = system: Staphylococcus aureus CCARM 3090 (tolerance to antibiotics)
From the text: as §1, §2

[13] = system: Staphylococcus aureus CCARM 3518 (tolerance to antibiotics)
From the text: as §1, §2

[14] = system: Trichosporon beigelii KCTC 7707; details: KCTC 7707, 18 h
From the text: as §1, §2

[15] = in vitro; details: human, HaCaT keratinocyte cells
Experimental: To determine the cytotoxicity of the peptides produced by the method of Example 1 in normal cell line, cytotoxicity was measured by using human keratinocyte cell line (HaCaT cell line, Dr. N E. Fusenig, Heidelberg, Germany).
Specifically, HaCaT cells, which have been cultured in DMEM medium containing 10% FBS (fetal bovine serum), were aliquoted in a microtiter plate to have 2×10^5 cells per well. […] Twenty-four hours later, a reaction solution containing 0.5 mg/ml MTT (thiazolyl blue tetrazolium bromide) dissolved in phosphate buffered saline (PBS) was added in an amount of 100 μl to each well and the reaction was allowed to occur for 4 hours. After that, the supernatant was discarded, and, by dissolving MTT crystals that are formed by adding 200 μl DMSO (dimethyl sulfoxide), the absorbance at 560 nm was measured to determine the cell survival ability.

[16] = system: erythrocytes of a mouse (Balb/c); experiment: Erythrocyte hemolytic activity; details: 1 hour at 37° C.
Experimental: To compare the cytotoxicity among the peptides that are produced by the method of Example 1, erythrocyte hemolytic activity of the synthesized peptide was measured.
After that, the amount of hemoglobin contained in a supernatant collected by centrifuge at 1,000×g was determined by measuring the absorbance at a wavelength of 414 nm. As a control to be used as a reference for cell disruption level, the supernatant collected by a treatment with 1% Triton X-100 (Sigma, USA) and a reaction for 1 hour at 37° C. was used to measure the absorbance. By setting the resulting absorbance value at 100% of the erythrocyte hemolytic activity, hemolysis of each peptide was calculated using the following equation 1. Erythrocyte disrupting ability (%)=(Absorbance A−Absorbance B)/(Absorbance C−Absorbance B)×100 Equation 1 (in the above equation, Absorbance A indicates the absorbance of a reaction solution treated with each peptide, in which the absorbance is measured at a wavelength of 414 nm; Absorbance B indicates the absorbance of a reaction solution treated with PBS, in which the absorbance is measured at a wavelength of 414 nm; and Absorbance C indicates the absorbance of a reaction solution treated with 1% Triton X-100, in which the absorbance is measured at a wavelength of 414 nm).

[17] = system: plasmid DNA (pRSETB); experiment: Binding between antimicrobial peptide and DNA (agarose gel electrophoresis); details: plasmid DNA 300 ng, peptide/DNA ratio 0.25:1 to 4:1, 10 minutes at 37° C.
Experimental: Specifically, plasmid DNA (pRSETB, 300 ng) and the peptide were reacted for at different ratio (i.e., peptide/DNA ratio was 0 (DNA only), 0.25:1, 0.5:1, 1:1, 1.5:1, 2:1, 3:1, or 4:1) for 10 minutes at 37° C. After that, electrophoresis was carried out using 1% agarose gel followed by staining with ethidium bromide (EtBr) and UV determination.

[18] = system: Escherichia coli; experiment: Flow cytometry, propidium iodide, effect on bacteria membrane; assay type: cell-based; details: peptide at MIC
Experimental: (§3) After that, the supernatant was removed by centrifuge (10,000 rpm) and stained with propidium iodide (PI, concentration of 10 μg/ml) for 30 minutes at 4° C. Thereafter, unbound propidium iodide was removed by centrifuge, and the problem of cell aggregation phenomenon was solved by adding physiological saline (PBS) in an amount of 1 ml.

[19] = system: Staphylococcus aureus; experiment: as above; assay type: cell-based; details: peptide at MIC
Experimental: as §3

| Substance | Minimal inhibitory concentration [1] | Minimal inhibitory concentration [2] | Minimal inhibitory concentration [3] | Minimal inhibitory concentration [4] | Minimal inhibitory concentration [5] | Minimal inhibitory concentration [6] | Minimal inhibitory concentration [7] | Minimal inhibitory concentration [8] | Erythrocyte disrupting ability ([16]; peptide concentration 3.13 μM) | Erythrocyte disrupting ability ([16]; peptide concentration 6.25 μM) | Erythrocyte disrupting ability ([16]; peptide concentration 12.5 μM) | Erythrocyte disrupting ability ([16]; peptide concentration 25 μM) | Erythrocyte disrupting ability ([16]; peptide concentration 50 μM) | Erythrocyte disrupting ability ([16]; peptide concentration 100 μM) | viability at 24 h, 3.13 µM [15] | viability at 24 h, 6.25 µM [15] | viability at 24 h, 12.5 µM [15] | viability at 24 h, 25 µM [15] | viability at 24 h, 50 µM [15] | viability at 24 h, 100 µM [15] | also measured |
| --- | --- | --- | --- | --- | --- | --- | --- | --- | --- | --- | --- | --- | --- | --- | --- | --- | --- | --- | --- | --- | --- |
| ALNALKKVSQGIHEAIKLIANHVQ-NH2 [Pse-Anal7] | 16 µM | 32 µM | 8 µM | 16 µM | 16 µM | 16 µM | 8 µM | 32 µM | – | – | – | – | – | – | – | – | – | – | – | – | Minimal inhibitory concentration [9]: 32 µM; Minimal inhibitory concentration [10]: 8 µM; Minimal inhibitory concentration [11]: 16 µM; Minimal inhibitory concentration [12]: 32 µM; Minimal inhibitory concentration [13]: 32 µM; Minimal inhibitory concentration [14]: 32 µM; viability at 24 h, 3.13 µM ([15]; Cell survival ability): 100%; viability at 24 h, 6.25 µM ([15]; Cell survival ability): 100%; viability at 24 h, 12.5 µM ([15]; Cell survival ability): 100%; viability at 24 h, 25 µM ([15]; Cell survival ability): 100%; viability at 24 h, 50 µM ([15]; Cell survival ability): 100%; viability at 24 h, 100 µM ([15]; Cell survival ability): 100% |
| GLNALKKVFQGIHEAIKKINNHVQ-NH2 [Pse-18L-K] | – | – | – | – | – | – | – | – | 2.4% | 3.4% | 5.4% | 12.5% | 24.2% | 36.7% | 100% | 100% | 100% | 100% | 100% | 81.5% | – |
| GLNALKKVFQGIHEAIKLINNHVQ-NH2 [Pseudin-2] | – | – | – | – | – | – | – | – | 0% | 0% | 0% | 0% | 3.2% | 10% and 10.1% | 100% | 100% | 100% | 100% | 100% | 82.1% | Binding to DNA [17]: did not show any binding to DNA |
| GLNALKKVSQGIHEAIKLINNHVQ-NH2 [Pse-Anal5] | – | – | – | – | – | – | – | – | 0% | 0.7% | 2.3% | 5.9% | 11.7% | 20.1% | 100% | 100% | 100% | 100% | 96.3% | 83.5% | – |
| GLNALKKVSQGIHESIKLINNHVQ-NH2 [Pse-Anal6] | 32 µM | 64 µM | 16 µM | 64 µM | 64 µM | 32 µM | 16 µM | 64 µM | – | – | – | – | – | – | – | – | – | – | – | – | Minimal inhibitory concentration [9]: 64 µM; Minimal inhibitory concentration [10]: 16 µM; Minimal inhibitory concentration [11]: 32 µM; Minimal inhibitory concentration [12]: 64 µM; Minimal inhibitory concentration [13]: 64 µM; Minimal inhibitory concentration [14]: 64 µM; viability at 24 h, 3.13 µM ([15]; Cell survival ability): 100%; viability at 24 h, 6.25 µM ([15]; Cell survival ability): 100%; viability at 24 h, 12.5 µM ([15]; Cell survival ability): 100%; viability at 24 h, 25 µM ([15]; Cell survival ability): 100%; viability at 24 h, 50 µM ([15]; Cell survival ability): 100%; viability at 24 h, 100 µM ([15]; Cell survival ability): 92.1% |
| LNALKKVFQGIHEAIKLI-NH2 [Pse-T1] | – | – | – | – | – | – | – | – | 0% | 0% | 0% | 0% | 3.9% | 12.3% | 100% | 100% | 100% | 100% | 98.8% | 86.2% | Membrane disrupting ability compared with Pseudin-2 [18]: higher membrane disrupting ability than Pseudin-2; Membrane disrupting ability compared with Pseudin-2 [19]: higher membrane disrupting ability than Pseudin-2; Binding to DNA [17]: showed binding to DNA |
| WLNALKKVFQGIHEAIKLINNHVQ-NH2 [Pse-Anal1] | – | – | – | – | – | – | – | – | 50.9% | 58.6% | 68.9% | 82.0% | 93.5% | 100% | 80.1% | 35.2% | 26.8% | 15.9% | 13.6% | 1.8% | – |
| WLNALKKVFQGIHEAIKLIWNHVQ-NH2 [Pse-Anal2] | 4 µM | 32 µM | 2 µM | 2 µM | 2 µM | 8 µM | 2 µM | 2 µM | – | – | – | – | – | – | – | – | – | – | – | – | Minimal inhibitory concentration [9]: 4 µM; Minimal inhibitory concentration [10]: 2 µM; Minimal inhibitory concentration [11]: 4 µM; Minimal inhibitory concentration [12]: 4 µM; Minimal inhibitory concentration [13]: 4 µM; Minimal inhibitory concentration [14]: 32 µM; viability at 24 h, 3.13 µM ([15]; Cell survival ability): 81.3%; viability at 24 h, 6.25 µM ([15]; Cell survival ability): 48.1%; viability at 24 h, 12.5 µM ([15]; Cell survival ability): 32.2%; viability at 24 h, 25 µM ([15]; Cell survival ability): 18.8%; viability at 24 h, 50 µM ([15]; Cell survival ability): 15.7%; viability at 24 h, 100 µM ([15]; Cell survival ability): 5.1% |
| WLNALKKVFQGIHEAIKLIWNWVQ-NH2 [Pse-Anal3] | 32 µM | 32 µM | 16 µM | 32 µM | 32 µM | 32 µM | 16 µM | 64 µM | – | – | – | – | – | – | – | – | – | – | – | – | Minimal inhibitory concentration [9]: 64 µM; Minimal inhibitory concentration [10]: 16 µM; Minimal inhibitory concentration [11]: 32 µM; Minimal inhibitory concentration [12]: 32 µM; Minimal inhibitory concentration [13]: 32 µM; Minimal inhibitory concentration [14]: 32 µM; viability at 24 h, 3.13 µM ([15]; Cell survival ability): 55.4%; viability at 24 h, 6.25 µM ([15]; Cell survival ability): 45.8%; viability at 24 h, 12.5 µM ([15]; Cell survival ability): 25.6%; viability at 24 h, 25 µM ([15]; Cell survival ability): 24.1%; viability at 24 h, 50 µM ([15]; Cell survival ability): 13.6%; viability at 24 h, 100 µM ([15]; Cell survival ability): 10.8% |
